From paper PMC7407272, “Induction of Lysosome Membrane Permeabilization as a Therapeutic Strategy to Target Pancreatic Cancer Stem Cells” (Cancers, 2020) come the findings set out here.

What all share (experiment): KINOMEscan
In test [1] the target is T1, FGFR2 (Homo sapiens, UniProt P21802).
T1 construct: purchased DiscoveRx KINOMEscan
Type of test: binding. The following applies: read-out: % Ctrl.

Test [2] addresses T2, PIK3CA(M1043I) (Homo sapiens, UniProt P42336, M1043I).
T2 construct: purchased DiscoveRx KINOMEscan
The format is binding. The settings on record: read-out: % Ctrl.

For test [3], the target named is T3, PIK3CA(Q546K) (Homo sapiens, UniProt P42336, Q546K).
T3 construct: purchased DiscoveRx KINOMEscan
The format is binding. The settings on record: read-out: % Ctrl.

Test [4] has as its target T4, LYN (Homo sapiens, UniProt P07948).
T4 construct: purchased DiscoveRx KINOMEscan
The format is binding. The following applies: read-out: % Ctrl.

The target of test [5] is T5, WNK4 (Homo sapiens, UniProt Q96J92).
T5 construct: purchased DiscoveRx KINOMEscan
The format is binding. The settings on record: read-out: % Ctrl.

Test [6] has as its target T6, ABL2 (Homo sapiens, UniProt P42684).
T6 construct: purchased DiscoveRx KINOMEscan
Type of test: binding. The following applies: read-out: % Ctrl.

Test [7] has as its target T7, p38-alpha (Homo sapiens, UniProt Q16539).
T7 construct: purchased DiscoveRx KINOMEscan
The format is binding. The settings on record: read-out: % Ctrl.

Test [8] has as its system FLT3(ITD,F691L). The format is binding, human. The settings on record: 1 µM.
The target of test [9] is T8, RIOK3 (Homo sapiens, UniProt O14730).
T8 construct: purchased DiscoveRx KINOMEscan
T8 sequence (O14730 whole entry): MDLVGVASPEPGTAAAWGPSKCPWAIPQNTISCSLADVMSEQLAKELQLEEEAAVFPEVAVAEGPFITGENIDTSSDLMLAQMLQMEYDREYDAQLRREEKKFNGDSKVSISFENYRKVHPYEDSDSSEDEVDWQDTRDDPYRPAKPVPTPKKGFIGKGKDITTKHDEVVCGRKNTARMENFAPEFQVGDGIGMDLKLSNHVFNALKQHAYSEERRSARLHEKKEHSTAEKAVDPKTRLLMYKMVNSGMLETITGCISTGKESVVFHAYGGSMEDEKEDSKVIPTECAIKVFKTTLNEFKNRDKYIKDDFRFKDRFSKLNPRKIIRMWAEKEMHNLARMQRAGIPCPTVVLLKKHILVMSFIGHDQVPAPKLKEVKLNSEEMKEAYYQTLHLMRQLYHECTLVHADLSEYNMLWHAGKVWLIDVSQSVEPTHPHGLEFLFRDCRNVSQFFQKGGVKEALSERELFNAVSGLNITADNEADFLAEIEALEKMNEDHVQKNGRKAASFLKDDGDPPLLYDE
The format is binding. The settings on record: read-out: % Ctrl.

Test [10] concerns the target T9, EGFR(E746-A750del) (Homo sapiens, UniProt P00533, DEL746-750).
T9 construct: purchased DiscoveRx KINOMEscan
The format is binding. The settings on record: read-out: % Ctrl.

Test [11] concerns the target T10, NIM1 (Homo sapiens, UniProt Q8IY84).
T10 construct: purchased DiscoveRx KINOMEscan
Type of test: binding. The following applies: read-out: % Ctrl.

Test [12] has as its target T11, GRK2 (Homo sapiens, UniProt P25098).
T11 construct: purchased DiscoveRx KINOMEscan
The format is binding. The following applies: read-out: % Ctrl.

The target in test [13] is T12, YSK4 (Homo sapiens, UniProt Q56UN5).
T12 construct: purchased DiscoveRx KINOMEscan
T12 sequence (Q56UN5 whole entry): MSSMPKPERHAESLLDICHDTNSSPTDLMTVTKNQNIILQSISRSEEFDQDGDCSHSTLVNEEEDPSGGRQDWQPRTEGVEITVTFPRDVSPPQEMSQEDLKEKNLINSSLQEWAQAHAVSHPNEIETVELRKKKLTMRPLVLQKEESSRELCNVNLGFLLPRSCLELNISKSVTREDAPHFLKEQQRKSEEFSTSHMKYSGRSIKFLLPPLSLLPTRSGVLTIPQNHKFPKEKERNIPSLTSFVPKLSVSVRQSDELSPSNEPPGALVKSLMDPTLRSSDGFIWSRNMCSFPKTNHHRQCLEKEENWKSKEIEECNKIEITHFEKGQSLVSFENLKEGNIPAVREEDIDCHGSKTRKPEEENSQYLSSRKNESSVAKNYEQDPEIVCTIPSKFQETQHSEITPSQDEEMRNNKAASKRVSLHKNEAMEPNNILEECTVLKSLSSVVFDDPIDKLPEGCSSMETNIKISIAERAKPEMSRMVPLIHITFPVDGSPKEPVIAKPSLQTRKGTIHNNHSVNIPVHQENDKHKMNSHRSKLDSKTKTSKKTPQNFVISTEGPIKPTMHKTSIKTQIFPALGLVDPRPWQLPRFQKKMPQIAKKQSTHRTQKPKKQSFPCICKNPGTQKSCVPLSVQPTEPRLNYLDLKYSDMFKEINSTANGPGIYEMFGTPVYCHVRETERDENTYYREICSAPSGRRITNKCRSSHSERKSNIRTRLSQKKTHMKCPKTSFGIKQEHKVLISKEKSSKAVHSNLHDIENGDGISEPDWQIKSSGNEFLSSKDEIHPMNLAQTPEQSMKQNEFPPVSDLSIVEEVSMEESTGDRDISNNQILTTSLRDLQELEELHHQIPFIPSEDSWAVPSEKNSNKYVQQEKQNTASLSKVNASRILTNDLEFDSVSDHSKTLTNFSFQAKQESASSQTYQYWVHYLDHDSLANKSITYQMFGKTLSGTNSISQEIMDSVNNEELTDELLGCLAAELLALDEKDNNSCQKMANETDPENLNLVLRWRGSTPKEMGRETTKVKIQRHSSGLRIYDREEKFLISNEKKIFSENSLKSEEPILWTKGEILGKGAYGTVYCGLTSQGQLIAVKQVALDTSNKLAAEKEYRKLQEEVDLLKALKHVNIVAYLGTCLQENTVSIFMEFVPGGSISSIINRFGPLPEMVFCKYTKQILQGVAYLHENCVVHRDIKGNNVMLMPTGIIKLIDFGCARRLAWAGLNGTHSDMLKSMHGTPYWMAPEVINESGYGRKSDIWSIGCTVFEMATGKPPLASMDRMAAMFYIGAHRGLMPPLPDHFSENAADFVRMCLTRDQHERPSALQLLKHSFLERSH
The format is binding. The settings on record: read-out: % Ctrl.

The target of test [14] is T13, AMPK-alpha1 (Homo sapiens, UniProt Q13131).
T13 construct: purchased DiscoveRx KINOMEscan
T13 sequence (Q13131 whole entry): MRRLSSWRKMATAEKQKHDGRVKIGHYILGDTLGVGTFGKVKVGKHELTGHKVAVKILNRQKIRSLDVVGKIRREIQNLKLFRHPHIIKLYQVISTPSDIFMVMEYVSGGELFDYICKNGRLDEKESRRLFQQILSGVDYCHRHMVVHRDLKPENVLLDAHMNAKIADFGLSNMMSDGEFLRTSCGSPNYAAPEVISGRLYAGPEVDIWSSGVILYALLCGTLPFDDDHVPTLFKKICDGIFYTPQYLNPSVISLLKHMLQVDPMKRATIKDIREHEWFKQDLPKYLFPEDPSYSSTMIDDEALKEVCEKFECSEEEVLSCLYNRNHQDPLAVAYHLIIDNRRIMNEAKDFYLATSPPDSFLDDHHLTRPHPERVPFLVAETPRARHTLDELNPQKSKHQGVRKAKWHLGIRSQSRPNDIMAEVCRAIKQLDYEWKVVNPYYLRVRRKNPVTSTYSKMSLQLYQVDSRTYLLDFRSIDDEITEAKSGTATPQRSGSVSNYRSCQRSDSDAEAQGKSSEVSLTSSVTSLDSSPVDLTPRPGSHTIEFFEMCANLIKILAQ
The format is binding. The following applies: read-out: % Ctrl.

The target in test [15] is T14, TAOK1 (Homo sapiens, UniProt Q7L7X3).
T14 construct: purchased DiscoveRx KINOMEscan
Type of test: binding. The settings on record: read-out: % Ctrl.

For test [16], the target named is T15, RIPK1 (Homo sapiens, UniProt Q13546).
T15 construct: purchased DiscoveRx KINOMEscan
The format is binding. The following applies: read-out: % Ctrl.

Test [17] deals with T16, ICK (Homo sapiens, UniProt Q9UPZ9).
T16 construct: purchased DiscoveRx KINOMEscan
The format is binding. The settings on record: read-out: % Ctrl.

Test [18] concerns the target T17, TXK (Homo sapiens, UniProt P42681).
T17 construct: purchased DiscoveRx KINOMEscan
The format is binding. The settings on record: read-out: % Ctrl.

For test [19], the target named is T18, CAMK1 (Homo sapiens, UniProt Q14012).
T18 construct: purchased DiscoveRx KINOMEscan
Type of test: binding. The settings on record: read-out: % Ctrl.

Test [20] deals with T19, TNIK (Homo sapiens, UniProt Q9UKE5).
T19 construct: purchased DiscoveRx KINOMEscan
T19 sequence (Q9UKE5 whole entry): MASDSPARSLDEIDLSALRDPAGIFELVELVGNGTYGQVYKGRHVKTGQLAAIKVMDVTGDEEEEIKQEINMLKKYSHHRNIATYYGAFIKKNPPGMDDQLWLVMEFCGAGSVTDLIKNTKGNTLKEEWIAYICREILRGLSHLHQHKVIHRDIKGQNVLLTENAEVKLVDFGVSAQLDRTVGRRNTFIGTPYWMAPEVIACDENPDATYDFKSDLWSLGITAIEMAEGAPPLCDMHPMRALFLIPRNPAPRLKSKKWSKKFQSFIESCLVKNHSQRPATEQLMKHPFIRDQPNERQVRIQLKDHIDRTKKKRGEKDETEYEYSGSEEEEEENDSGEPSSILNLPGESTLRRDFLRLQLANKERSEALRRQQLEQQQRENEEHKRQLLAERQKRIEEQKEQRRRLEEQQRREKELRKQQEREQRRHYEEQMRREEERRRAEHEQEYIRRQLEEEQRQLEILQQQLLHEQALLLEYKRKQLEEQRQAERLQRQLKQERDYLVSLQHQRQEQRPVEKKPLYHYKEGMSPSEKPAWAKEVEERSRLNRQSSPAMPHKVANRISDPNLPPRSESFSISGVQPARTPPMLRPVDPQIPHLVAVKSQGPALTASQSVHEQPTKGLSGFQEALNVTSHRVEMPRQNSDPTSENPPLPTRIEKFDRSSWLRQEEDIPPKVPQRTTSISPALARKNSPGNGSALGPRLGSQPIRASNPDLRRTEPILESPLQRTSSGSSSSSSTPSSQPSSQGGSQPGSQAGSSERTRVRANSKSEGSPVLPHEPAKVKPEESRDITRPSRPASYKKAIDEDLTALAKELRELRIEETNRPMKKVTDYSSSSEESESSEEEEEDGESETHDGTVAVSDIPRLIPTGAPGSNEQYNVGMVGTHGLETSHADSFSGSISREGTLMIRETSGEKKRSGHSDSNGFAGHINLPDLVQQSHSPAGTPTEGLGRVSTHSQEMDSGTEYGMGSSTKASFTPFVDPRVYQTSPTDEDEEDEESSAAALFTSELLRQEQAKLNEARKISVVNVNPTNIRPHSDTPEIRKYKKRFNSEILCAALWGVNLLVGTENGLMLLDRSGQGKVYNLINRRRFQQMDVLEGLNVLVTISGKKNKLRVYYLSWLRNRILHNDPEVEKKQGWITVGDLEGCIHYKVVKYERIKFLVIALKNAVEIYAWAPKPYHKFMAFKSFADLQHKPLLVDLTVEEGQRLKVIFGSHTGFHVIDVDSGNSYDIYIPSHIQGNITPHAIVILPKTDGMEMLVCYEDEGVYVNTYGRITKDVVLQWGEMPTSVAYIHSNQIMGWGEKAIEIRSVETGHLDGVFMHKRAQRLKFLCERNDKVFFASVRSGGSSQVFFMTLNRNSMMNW
Type of test: binding. The settings on record: read-out: % Ctrl.

Test [21] concerns the target T20, PRKG2 (Homo sapiens, UniProt Q13237).
T20 construct: purchased DiscoveRx KINOMEscan
The format is binding. The following applies: read-out: % Ctrl.

The target of test [22] is T21, NDR2 (Homo sapiens, UniProt Q9Y2H1).
T21 construct: purchased DiscoveRx KINOMEscan
Type of test: binding. The settings on record: read-out: % Ctrl.

T4 sequence (P07948 whole entry): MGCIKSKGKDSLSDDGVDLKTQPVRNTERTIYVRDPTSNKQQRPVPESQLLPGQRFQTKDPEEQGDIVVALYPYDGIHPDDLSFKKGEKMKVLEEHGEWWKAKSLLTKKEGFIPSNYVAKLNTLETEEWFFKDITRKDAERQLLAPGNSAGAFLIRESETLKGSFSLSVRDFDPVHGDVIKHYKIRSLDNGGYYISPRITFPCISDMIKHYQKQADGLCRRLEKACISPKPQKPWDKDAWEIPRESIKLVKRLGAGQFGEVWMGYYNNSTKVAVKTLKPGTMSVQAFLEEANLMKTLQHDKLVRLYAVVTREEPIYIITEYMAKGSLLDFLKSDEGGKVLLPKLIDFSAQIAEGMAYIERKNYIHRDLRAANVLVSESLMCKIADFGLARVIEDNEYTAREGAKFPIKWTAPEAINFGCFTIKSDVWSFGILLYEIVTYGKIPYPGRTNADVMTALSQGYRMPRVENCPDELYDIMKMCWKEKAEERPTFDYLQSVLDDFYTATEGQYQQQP
T11 sequence (P25098 whole entry): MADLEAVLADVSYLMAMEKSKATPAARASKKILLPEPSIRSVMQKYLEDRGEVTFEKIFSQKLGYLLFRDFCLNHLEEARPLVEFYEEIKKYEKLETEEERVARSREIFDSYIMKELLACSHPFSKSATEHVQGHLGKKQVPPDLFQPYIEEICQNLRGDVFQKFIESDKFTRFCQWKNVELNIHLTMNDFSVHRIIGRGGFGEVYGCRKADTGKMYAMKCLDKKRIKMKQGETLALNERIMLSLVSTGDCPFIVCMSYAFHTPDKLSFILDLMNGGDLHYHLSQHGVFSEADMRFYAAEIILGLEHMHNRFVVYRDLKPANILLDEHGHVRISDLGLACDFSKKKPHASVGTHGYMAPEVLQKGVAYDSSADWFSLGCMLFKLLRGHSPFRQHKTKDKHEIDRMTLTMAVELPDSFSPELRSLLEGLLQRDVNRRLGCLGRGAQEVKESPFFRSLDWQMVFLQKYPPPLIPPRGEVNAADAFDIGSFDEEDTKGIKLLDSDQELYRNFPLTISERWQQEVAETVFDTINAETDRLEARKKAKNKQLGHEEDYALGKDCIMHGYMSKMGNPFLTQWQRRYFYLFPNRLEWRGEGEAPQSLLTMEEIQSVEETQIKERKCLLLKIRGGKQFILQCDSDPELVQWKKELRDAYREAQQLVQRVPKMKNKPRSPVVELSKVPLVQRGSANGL

Take `CN1CCC(CNc2ccc3ncc(C(=O)Nc4cccc(OC(F)(F)F)c4)n3n2)CC1` [Cpd 2]: the remaining binding at 1 µM was 100% in test [1]; 90% in test [2]; 89% in test [3]; 98% in [4]; 100% in [5]; 96% in test [6]. Also, the remaining binding at 1 µM worked out at 96% in [7]; 78% in [9]; 77% in test [10]; 78% in test [11]; 79% in [12]; 71% in test [13]. Further, the remaining binding at 1 µM was 100% in test [14]; 82% in test [15]; 100% in [16]; 93% in [17]; 100% in test [18]; 98% in test [19]. Also, the remaining binding at 1 µM in [20] worked out at 81%; in [21] it was 100%; in test [22] it was 91%. In addition, in [8], the “% Ctrl” value is 34%.
